According to ChEMBL document CHEMBL3739401, “Synthesis, in vitro, and in vivo evaluation of novel functionalized quaternary ammonium curcuminoids as potential anti-cancer agents” (Bioorg Med Chem Lett, 2015):
Activity calls are given as the source filed them. The calls are words filed in the database; no cut-off is given here.

Tests used:
[1] = Aqueous solubility of compound; format: physicochemical; conditions: water
[2] = Cytotoxicity against human MIAPaCa2 cells by MTT assay; format: functional, cell-based; conditions: MIA PaCa-2
[3] = tested on: MDA-MB-231; experiment: Cytotoxicity against human MDA-MB-231 cells by MTT assay; format: functional, cell-based
[4] = tested on: 4T1; experiment: Cytotoxicity against mouse 4T1 cells by MTT assay; format: functional, cell-based
[5] = tested on: MDA-MB-231; experiment: Cytotoxicity against human MDA-MB-231 cells upto 50 uM by MTT assay; format: functional, cell-based
[6] = Antitumor activity against human MIAPaCa2 cells xenografted in athymic nude mouse assessed as tumor growth inhibition at 100 mg/kg, ip twice weekly; format: functional; conditions: MIA PaCa-2, ip, read-out: TGI
[7] = tested on: MDA-MB-231; experiment: Cytotoxicity against human MDA-MB-231 cells at 20 to 50 uM by MTT assay; format: functional, cell-based
[8] = tested on: Mus musculus; experiment: Toxicity in CD-1 mouse assessed as sign of stress at 30 mg/kg, ip bid; format: organism-based; conditions: in vivo
[9] = tested on: Mus musculus; experiment: Toxicity in CD-1 mouse assessed as survival at 30 mg/kg, ip bid; format: organism-based; conditions: in vivo
[10] = tested on: Mus musculus; experiment: Toxicity in CD-1 mouse assessed as survival at 50 mg/kg, ip measured after 7 days; format: organism-based; conditions: in vivo, 168 h
[11] = Antitumor activity against human MIAPaCa2 cells xenografted in athymic nude mouse assessed as tumor growth inhibition at 40 mg/kg, ip bid cotreated with gemcitabine (100 mg/kg, ip twice weekly; format: functional, MIA PaCa-2
[12] = tested on: Mus musculus; experiment: Toxicity in CD-1 mouse assessed as effect on body weight at 50 mg/kg, ip measured after 7 days; format: organism-based; conditions: in vivo, 168 h
[13] = tested on: Mus musculus; experiment: Toxicity in CD-1 mouse assessed as sign of stress at 50 mg/kg, ip measured after 7 days; format: organism-based; conditions: in vivo, 168 h
[14] = tested on: Mus musculus; experiment: Toxicity in CD-1 mouse assessed as effect on body weight at 30 mg/kg, ip bid; format: organism-based; conditions: in vivo
[15] = Antitumor activity against human MIAPaCa2 cells xenografted in athymic nude mouse assessed as tumor growth inhibition at 40 mg/kg, ip bid; format: functional; conditions: MIA PaCa-2, ip, read-out: TGI

Row | SMILES | solubility [1] [µg/mL] | IC50 [2] [µM] | IC50 [3] [µM] | IC50 [4] [µM] | also measured
1 | C=CC[N+]1(C)CCOCC1 | > 100000 | – | – | – | –
2 | C[N+]1(Cc2ccccc2)CCOCC1 | > 100000 | – | – | – | –
3 | C=C(C[N+]1(C)CCOCC1)C(=O)OC | > 100000 | – | – | – | –
4 | C=C(C(=O)OC)C(O)c1ccccc1 (configuration not stated) | – | – | – | – | Activity [5]: inactive
5 | Nc1ccn([C@@H]2O[C@H](CO)[C@@H](O)C2(F)F)c(=O)n1 [GEMCITABINE] | – | – | – | – | inhibition in vivo at 100 mg/kg [6]: 47%
6 | COC(=O)/C(=C/c1ccccc1)CBr | – | – | – | – | Activity [7]: Active
7 | O=C(/C=C(O)/C=C/c1ccc(N2CCN(CCO)CC2)cc1)/C=C/c1ccc(N2CCN(CCO)CC2)cc1 | – | > 100 | > 100 | > 100 | –
8 | C[N+]1(Cc2ccccc2)CCN(c2ccc(/C=C/C(=O)/C=C(O)/C=C/c3ccc(N4CC[N+](C)(Cc5ccccc5)CC4)cc3)cc2)CC1.[Br-].[Br-] | 15000 | > 100 | > 100 | > 100 | –
9 | COc1cc(/C=C/C(=O)CC(=O)/C=C/c2ccc(O)c(OC)c2)ccc1O [CURCUMIN] | – | 20 | 15 | 20 | –
10 | CN1CCN(c2ccc(/C=C/C(=O)/C=C(O)/C=C/c3ccc(N4CCN(C)CC4)cc3)cc2)CC1 | – | > 100 | > 100 | > 100 | –
11 | C=C(C[N+]1(C)CCN(c2ccc(/C=C/C(=O)/C=C(O)/C=C/c3ccc(N4CC[N+](C)(CC(=C)C(=O)OC)CC4)cc3)cc2)CC1)C(=O)OC.[Br-].[Br-] | 1000 | 2.7 | 3.6 | 4.1 | Activity [8]: Non-toxic; Activity [9]: Non-toxic; Activity [10]: Non-toxic; TGI [11]: 57%; Activity [12]: Non-toxic; Activity [13]: Non-toxic; Activity [14]: Non-toxic; inhibition in vivo at 40 mg/kg [15]: 42%
12 | C=C(CBr)C(=O)OC | – | – | – | – | Activity [7]: Active

More lines, main results first:

Row | solubility [1] [µg/mL] | SMILES | IC50 [2] [µM] | IC50 [3] [µM] | IC50 [4] [µM] | also measured
13 | 15000 | C=CC[N+]1(C)CCN(c2ccc(/C=C/C(=O)/C=C(O)/C=C/c3ccc(N4CC[N+](C)(CC=C)CC4)cc3)cc2)CC1.[Br-].[Br-] | > 100 | > 100 | > 100 | –
14 | 1000 | C=C(C[N+]1(C)CCN(c2ccc(/C=C/C(=O)/C=C(O)/C=C/c3ccc(N4CC[N+](C)(CC(=C)C(=O)N(C)C)CC4)cc3)cc2)CC1)C(=O)N(C)C.[Br-].[Br-] | 14.2 | 15.1 | 17.2 | –
15 | 1000 | C=C(C[N+]1(C)CCN(c2ccc(/C=C/C(=O)/C=C(O)/C=C/c3ccc(N4CC[N+](C)(CC(=C)C(=O)OCCCCCC)CC4)cc3)cc2)CC1)C(=O)OCCCCCC.[Br-].[Br-] | 4.2 | 4.2 | 3.4 | –
16 | 1000 | C=C(C[N+]1(C)CCN(c2ccc(/C=C/C(=O)/C=C(O)/C=C/c3ccc(N4CC[N+](C)(CC(=C)C(=O)OCCCC)CC4)cc3)cc2)CC1)C(=O)OCCCC.[Br-].[Br-] | 4.4 | 3.7 | 4.1 | –
17 | 1000 | COC(=O)/C(=C\c1ccccc1)C[N+]1(C)CCN(c2ccc(/C=C/C(=O)/C=C(O)/C=C/c3ccc(N4CC[N+](C)(C/C(=C/c5ccccc5)C(=O)OC)CC4)cc3)cc2)CC1.[Br-].[Br-] | 4.1 | 6.2 | 5 | –
